Reference: patent US8642013B2, “Nano-scale contrast agents and methods of use” (priority 2008, dated 2014)

Assay: blood concentration and clearance after injection in tumor-bearing rats
Assay type: in vivo, Fischer female rats
Settings: high iodine dose (1,344 mgl/mL)
Experimental: Contrast-enhanced mammography was performed with a commercial digital mammography system (Senographe 2000D, GE Healthcare) at 49 kVp and 63 mAs with a rhodium target and an extra copper filter of 0.3 mm thickness. These settings were used to shape the x-rays to have optimal energies for iodine. […] Initial studies were performed with high doses of the nano-probe to obtain a vascular image. A pre-contrast image (FIG. 2(a)) and post-contrast images were acquired 1, 5, 10, and 15 minutes after tail vein injection of the nano-probe. […] In the case of an adult human, this would correspond to a dose of about 654 mL of the nano-probe (assuming a blood volume of five liters), which is prohibitively large for use in humans. However, this high dose was used to clearly visualize the blood vessels that the mammography system was capable of detecting.
Another control group was injected with a conventional iodinated agent (iohexol) at an iodine dose equivalent to the high dose of 1,344 mgl/mL of the nano-probe. (See FIG. 7). […] (See FIG. 8).

Compound: CC(=O)N(CC(O)CO)c1c(I)c(C(=O)NCC(O)CO)c(I)c(C(=O)NCC(O)CO)c1I (stereo not shown) [iohexol]
- clearance: rapidly cleared via the kidneys
